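Assay format: 96-well plates, 48-hour exposure. TGI is the concentration that stops growth completely.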
Legend:
Test in all cases: NCI-60 cell line screen, 48 h
786-0 renal = system: 786-0 renal
A498 renal = system: A498 renal
A549 NSCLC = system: A549 NSCLC
ACHN renal = system: ACHN renal
BT-549 breast = system: BT-549 breast
CAKI-1 renal = system: CAKI-1 renal
CCRF-CEM leukemia = system: CCRF-CEM leukemia
COLO 205 colon = system: COLO 205 colon
DU-145 prostate = system: DU-145 prostate
EKVX NSCLC = system: EKVX NSCLC
HCC-2998 colon = system: HCC-2998 colon
HCT-116 colon = system: HCT-116 colon
HCT-15 colon = system: HCT-15 colon
HL-60(TB) leukemia = system: HL-60(TB) leukemia
HOP-62 NSCLC = system: HOP-62 NSCLC
HS 578T breast = system: HS 578T breast
HT29 colon = system: HT29 colon
IGROV1 ovarian = system: IGROV1 ovarian
K-562 leukemia = system: K-562 leukemia
KM12 colon = system: KM12 colon
LOX IMVI melanoma = system: LOX IMVI melanoma
M14 melanoma = system: M14 melanoma
MALME-3M melanoma = system: MALME-3M melanoma
MCF7 breast = system: MCF7 breast
MDA-MB-231 breast = system: MDA-MB-231 breast
MDA-MB-435 = system: MDA-MB-435
MDA-N = system: MDA-N
MOLT-4 leukemia = system: MOLT-4 leukemia
NCI-H226 lung = system: NCI-H226 lung
NCI-H23 lung = system: NCI-H23 lung
NCI-H460 lung = system: NCI-H460 lung
NCI-H522 lung = system: NCI-H522 lung
NCI/ADR-RES ovarian = system: NCI/ADR-RES ovarian
OVCAR-3 ovarian = system: OVCAR-3 ovarian
OVCAR-4 ovarian = system: OVCAR-4 ovarian
OVCAR-5 ovarian = system: OVCAR-5 ovarian
OVCAR-8 ovarian = system: OVCAR-8 ovarian
PC-3 prostate = system: PC-3 prostate
RXF 393 renal = system: RXF 393 renal
SF-268 CNS = system: SF-268 CNS
SF-295 CNS = system: SF-295 CNS
SF-539 CNS = system: SF-539 CNS
SK-MEL-28 melanoma = system: SK-MEL-28 melanoma
SK-MEL-5 melanoma = system: SK-MEL-5 melanoma
SK-OV-3 ovarian = system: SK-OV-3 ovarian
SN12C renal = system: SN12C renal
SNB-19 CNS = system: SNB-19 CNS
SNB-75 CNS = system: SNB-75 CNS
SW-620 colon = system: SW-620 colon
T-47D breast = system: T-47D breast
TK-10 renal = system: TK-10 renal
U251 CNS = system: U251 CNS
UACC-257 melanoma = system: UACC-257 melanoma
UACC-62 melanoma = system: UACC-62 melanoma
UO-31 renal = system: UO-31 renal
HOP-92 NSCLC = system: HOP-92 NSCLC
RPMI-8226 leukemia = system: RPMI-8226 leukemia
SK-MEL-2 melanoma = system: SK-MEL-2 melanoma
SR leukemia = system: SR leukemia

Work on O=[N+]([O-])C(Cl)C(Cl)C(Cl)=C(Cl)Cl (configuration not stated) yielded a TGI (786-0 renal) of 22.3 µM, a TGI (A498 renal) greater than 100 µM and a TGI (A549 NSCLC) greater than 100 µM. It also gave a TGI (ACHN renal) of 31.1 µM, a TGI (BT-549 breast) of 43.9 µM and a TGI (CAKI-1 renal) of 33.2 µM. For the same compound, the TGI (CCRF-CEM leukemia) was 58.6 µM, the TGI (COLO 205 colon) was 34 µM and the TGI (DU-145 prostate) was greater than 100 µM. It also gave a TGI (EKVX NSCLC) greater than 100 µM, a TGI (HCC-2998 colon) greater than 56.7 µM and a TGI (HCT-116 colon) of 38.3 µM. The TGI (HCT-15 colon) was 39.7 µM, the TGI (HL-60(TB) leukemia) was 44.1 µM and the TGI (HOP-62 NSCLC) was greater than 100 µM. It also gave a TGI (HS 578T breast) of 67.5 µM, a TGI (HT29 colon) of 36.4 µM and a TGI (IGROV1 ovarian) of 18.3 µM. The TGI (K-562 leukemia) was 85.2 µM, the TGI (KM12 colon) was greater than 100 µM and the TGI (LOX IMVI melanoma) was 28.8 µM. The TGI (M14 melanoma) was 19.5 µM, the TGI (MALME-3M melanoma) was 32.9 µM and the TGI (MCF7 breast) was greater than 54.9 µM. For the same compound, the TGI (MDA-MB-231 breast) was 34.6 µM, the TGI (MDA-MB-435) was 56.7 µM and the TGI (MDA-N) was 40.6 µM. For the same compound, the TGI (MOLT-4 leukemia) was 47.8 µM, the TGI (NCI-H226 lung) was greater than 100 µM and the TGI (NCI-H23 lung) was 60.4 µM. The TGI (NCI-H460 lung) was greater than 100 µM, the TGI (NCI-H522 lung) was 38.4 µM and the TGI (NCI/ADR-RES ovarian) was greater than 73.9 µM. It also gave a TGI (OVCAR-3 ovarian) greater than 56.7 µM, a TGI (OVCAR-4 ovarian) of 31.9 µM and a TGI (OVCAR-5 ovarian) greater than 82.2 µM. For the same compound, the TGI (OVCAR-8 ovarian) was greater than 75.2 µM, the TGI (PC-3 prostate) was greater than 57.4 µM and the TGI (RXF 393 renal) was 33.7 µM. The TGI (SF-268 CNS) was greater than 70.5 µM, the TGI (SF-295 CNS) was greater than 100 µM and the TGI (SF-539 CNS) was greater than 70 µM. The TGI (SK-MEL-28 melanoma) was 39 µM, the TGI (SK-MEL-5 melanoma) was 24.4 µM and the TGI (SK-OV-3 ovarian) was greater than 100 µM. The TGI (SN12C renal) was greater than 57.7 µM, the TGI (SNB-19 CNS) was greater than 100 µM and the TGI (SNB-75 CNS) was greater than 72.7 µM. It also gave a TGI (SW-620 colon) of 38.3 µM, a TGI (T-47D breast) of 47.9 µM and a TGI (TK-10 renal) of 39.4 µM. It also gave a TGI (U251 CNS) greater than 100 µM, a TGI (UACC-257 melanoma) of 41.9 µM and a TGI (UACC-62 melanoma) of 32.9 µM. The TGI (UO-31 renal) was greater than 31.6 µM.
Compound O=C(O)CN1CCNCCN(CP(=O)(O)O)CC1 has a TGI (786-0 renal) greater than 29.2 µM, a TGI (A498 renal) of 99.1 µM and a TGI (A549 NSCLC) greater than 100 µM. It also gave a TGI (ACHN renal) greater than 100 µM, a TGI (BT-549 breast) greater than 100 µM and a TGI (CAKI-1 renal) greater than 100 µM. It also gave a TGI (CCRF-CEM leukemia) greater than 100 µM, a TGI (COLO 205 colon) greater than 100 µM and a TGI (DU-145 prostate) greater than 100 µM. The TGI (EKVX NSCLC) was greater than 100 µM, the TGI (HCC-2998 colon) was greater than 100 µM and the TGI (HCT-116 colon) was greater than 27.5 µM. For the same compound, the TGI (HCT-15 colon) was greater than 100 µM, the TGI (HL-60(TB) leukemia) was 8.41 µM and the TGI (HOP-62 NSCLC) was greater than 100 µM. It also gave a TGI (HOP-92 NSCLC) greater than 100 µM, a TGI (HS 578T breast) greater than 100 µM and a TGI (IGROV1 ovarian) greater than 100 µM. It also gave a TGI (K-562 leukemia) greater than 100 µM, a TGI (KM12 colon) greater than 100 µM and a TGI (LOX IMVI melanoma) greater than 100 µM. It also gave a TGI (M14 melanoma) greater than 100 µM, a TGI (MALME-3M melanoma) greater than 100 µM and a TGI (MCF7 breast) greater than 100 µM. It also gave a TGI (MDA-MB-231 breast) greater than 100 µM, a TGI (MDA-MB-435) greater than 100 µM and a TGI (MDA-N) greater than 100 µM. It also gave a TGI (MOLT-4 leukemia) greater than 100 µM, a TGI (NCI-H226 lung) greater than 100 µM and a TGI (NCI-H23 lung) greater than 100 µM. The TGI (NCI-H460 lung) was greater than 100 µM, the TGI (NCI-H522 lung) was greater than 26.8 µM and the TGI (OVCAR-3 ovarian) was greater than 100 µM. For the same compound, the TGI (OVCAR-4 ovarian) was greater than 100 µM, the TGI (OVCAR-5 ovarian) was greater than 100 µM and the TGI (OVCAR-8 ovarian) was greater than 22.9 µM. The TGI (PC-3 prostate) was greater than 100 µM, the TGI (RPMI-8226 leukemia) was greater than 100 µM and the TGI (RXF 393 renal) was greater than 100 µM. For the same compound, the TGI (SF-268 CNS) was greater than 100 µM, the TGI (SF-295 CNS) was greater than 100 µM and the TGI (SF-539 CNS) was greater than 100 µM. For the same compound, the TGI (SK-MEL-2 melanoma) was greater than 100 µM, the TGI (SK-MEL-28 melanoma) was greater than 100 µM and the TGI (SK-MEL-5 melanoma) was greater than 66.5 µM. For the same compound, the TGI (SK-OV-3 ovarian) was greater than 100 µM, the TGI (SN12C renal) was greater than 100 µM and the TGI (SNB-19 CNS) was greater than 100 µM. For the same compound, the TGI (SNB-75 CNS) was greater than 100 µM, the TGI (SR leukemia) was greater than 100 µM and the TGI (SW-620 colon) was greater than 100 µM. The TGI (T-47D breast) was greater than 100 µM, the TGI (TK-10 renal) was greater than 100 µM and the TGI (U251 CNS) was greater than 100 µM. It also gave a TGI (UACC-257 melanoma) greater than 100 µM, a TGI (UACC-62 melanoma) greater than 100 µM and a TGI (UO-31 renal) greater than 100 µM.
